IC50 data for four compounds are collected here from ChEMBL document CHEMBL1143953, “Novel 2-phenylquinolin-7-yl-derived imidazo[1,5-a]pyrazines as potent insulin-like growth factor-I receptor (IGF-IR) inhibitors” (Bioorg Med Chem, 2008).

The target in experiment [1] is Insulin-like growth factor 1 receptor (Homo sapiens, UniProt P08069).
Description: Inhibition of human recombinant full length IGF1R expressed in mouse 3T3 cells
The target in the next experiment is Cytochrome P450 3A4 (Homo sapiens, UniProt P08684). As to the kind of experiment: Inhibition of CYP3A4. It counts as ADME.
Chain of Cytochrome P450 3A4 (P08684 whole entry): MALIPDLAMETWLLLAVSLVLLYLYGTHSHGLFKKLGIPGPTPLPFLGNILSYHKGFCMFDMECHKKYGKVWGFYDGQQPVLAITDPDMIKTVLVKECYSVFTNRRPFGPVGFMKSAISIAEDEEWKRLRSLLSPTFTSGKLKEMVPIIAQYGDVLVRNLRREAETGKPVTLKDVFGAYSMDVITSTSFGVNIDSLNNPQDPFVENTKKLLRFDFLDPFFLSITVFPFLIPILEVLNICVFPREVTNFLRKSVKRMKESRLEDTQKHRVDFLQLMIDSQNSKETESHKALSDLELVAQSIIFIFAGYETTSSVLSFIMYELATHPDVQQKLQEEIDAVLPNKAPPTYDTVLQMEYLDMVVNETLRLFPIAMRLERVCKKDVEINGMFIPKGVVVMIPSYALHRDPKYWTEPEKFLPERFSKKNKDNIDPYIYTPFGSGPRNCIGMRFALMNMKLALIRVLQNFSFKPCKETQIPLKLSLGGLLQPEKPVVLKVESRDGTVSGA

Chain of Insulin-like growth factor 1 receptor (P08069 31-736 limits assumed): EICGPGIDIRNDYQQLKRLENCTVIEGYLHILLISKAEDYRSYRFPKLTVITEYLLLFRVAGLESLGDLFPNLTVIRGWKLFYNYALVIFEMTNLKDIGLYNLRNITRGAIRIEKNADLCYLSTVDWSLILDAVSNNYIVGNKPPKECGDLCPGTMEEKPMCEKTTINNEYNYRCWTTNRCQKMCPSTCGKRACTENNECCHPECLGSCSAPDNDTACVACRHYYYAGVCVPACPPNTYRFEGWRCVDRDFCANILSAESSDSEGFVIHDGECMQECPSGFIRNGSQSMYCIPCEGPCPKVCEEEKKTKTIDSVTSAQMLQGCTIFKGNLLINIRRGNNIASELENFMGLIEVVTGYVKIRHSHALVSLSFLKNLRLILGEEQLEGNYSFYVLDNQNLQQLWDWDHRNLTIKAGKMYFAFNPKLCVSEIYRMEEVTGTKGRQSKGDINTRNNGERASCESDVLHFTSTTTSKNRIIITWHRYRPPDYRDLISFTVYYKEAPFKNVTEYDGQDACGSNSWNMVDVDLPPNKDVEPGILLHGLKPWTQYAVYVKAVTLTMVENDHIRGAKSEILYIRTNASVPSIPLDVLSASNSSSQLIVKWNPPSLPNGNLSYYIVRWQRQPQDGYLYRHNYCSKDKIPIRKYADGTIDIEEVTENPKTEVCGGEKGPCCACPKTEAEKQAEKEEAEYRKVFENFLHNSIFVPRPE
Chain of Insulin-like growth factor 1 receptor (P08069 741-1367 limits assumed): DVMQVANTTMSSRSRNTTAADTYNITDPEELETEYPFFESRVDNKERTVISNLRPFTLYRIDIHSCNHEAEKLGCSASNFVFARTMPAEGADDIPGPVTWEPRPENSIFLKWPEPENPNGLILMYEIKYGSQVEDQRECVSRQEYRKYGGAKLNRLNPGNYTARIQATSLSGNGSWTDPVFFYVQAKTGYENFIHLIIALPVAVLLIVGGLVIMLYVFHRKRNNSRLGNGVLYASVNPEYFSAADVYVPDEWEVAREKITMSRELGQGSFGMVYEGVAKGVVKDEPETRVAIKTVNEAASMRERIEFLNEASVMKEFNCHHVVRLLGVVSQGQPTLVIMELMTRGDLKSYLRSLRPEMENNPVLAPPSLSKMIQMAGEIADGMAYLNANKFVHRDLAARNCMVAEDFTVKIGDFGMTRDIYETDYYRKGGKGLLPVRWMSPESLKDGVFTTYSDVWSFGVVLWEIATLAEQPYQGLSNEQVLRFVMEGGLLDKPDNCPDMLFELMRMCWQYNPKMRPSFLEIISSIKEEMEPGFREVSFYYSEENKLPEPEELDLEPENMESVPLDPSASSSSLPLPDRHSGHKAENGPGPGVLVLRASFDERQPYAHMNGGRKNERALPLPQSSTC

What is called IC50 is the concentration at which inhibition is half-maximal. Lower therefore signals higher potency. `Oc1nccn2c(C3CCC3)nc(-c3ccc4ccc(-c5ccccc5)nc4c3)c12` had an IC50 in experiment [1] of over 10 µM.

Regarding `Nc1nccn2c1c(-c1ccc3ccc(-c4ccccc4)nc3c1)nc2[C@H]1C[C@@H](N2CCCC2)C1`, half-maximal inhibition against Cytochrome P450 3A4 (IC50) was put at 17 µM.

Consider `CN(C)C[C@H]1C[C@@H](c2nc(-c3ccc4ccc(-c5ccccc5)nc4c3)c3c(N)nccn32)C1`, for which, on Cytochrome P450 3A4, half-maximal inhibition (IC50) required 15 µM.

Regarding `Nc1nccn2c1c(-c1ccc3ccc(-c4ccccc4)nc3c1)nc2[C@H]1C[C@H](CN2CCOCC2)C1`, the IC50 against Cytochrome P450 3A4 is over 20 µM.
